According to publication PMC8286840, “Identifying SARS-CoV-2 antiviral compounds by screening for small molecule inhibitors of Nsp3 papain-like protease” (Biochemical Journal, 2021):
Where a name gives a salt, the structure may show the parent alone. Read-outs that look alike come from different tables or passages of the source.

What was measured:
[1] = target: T1, SARS-CoV-2 PLpro (nsp3 1564–1878) (Severe acute respiratory syndrome coronavirus 2, UniProt P0DTD1); assay: biochemical; design: FRET-quenched peptide (Pro3) cleavage by PLpro, 10 min pre-incubation, slope over 20 min, normalised to no-compound control; conditions: read-out: % of control remaining
[2] = target: T1, SARS-CoV-2 PLpro (nsp3 1564–1878); assay: biochemical; design: FRET-quenched peptide (Pro3) cleavage by PLpro, 10 min pre-incubation, slope over 20 min, normalised to no-compound control; conditions: read-out: % of control remaining; remark: listed apart in the source

## c1ccc2c3c([nH]c2c1)[C@H]1[C@@H]2CC[C@@H]([C@@H]4CCCN[C@@H]42)N1CC3
[1]; Well no.=3163, low concentration screen
  remaining activity at 1.25 µM: 105%
[2]; Well no.=3163, high concentration screen
  remaining activity at 3.75 µM: 103%

## CC[C@H]1CN2CCc3cc(OC)c(OC)cc3[C@@H]2C[C@@H]1C[C@H]1NCCc2cc(OC)c(OC)cc21
[1]; Well no.=3424, low concentration screen
  remaining activity at 1.25 µM: 92.3%
[2]; Well no.=3424, high concentration screen
  remaining activity at 3.75 µM: 98%

## COc1ccc2cc3[n+](cc2c1OC)CCc1cc2c(cc1-3)OCO2
[1]; Well no.=3515, low concentration screen
  remaining activity at 1.25 µM: 93.4%
[2]; Well no.=3515, high concentration screen
  remaining activity at 3.75 µM: 92.9%

## NC(=O)COc1c(F)cc(SCCNS(=O)(=O)c2ccccc2)cc1F
[1]; Well no.=5925, low concentration screen
  remaining activity at 1.25 µM: 94.7%
[2]; Well no.=5925, high concentration screen
  remaining activity at 3.75 µM: 93.7%

## C[C@H]([C@H](O)CCC(C)(C)O)[C@H]1CC[C@@]2(O)C3=CC(=O)[C@@H]4C[C@@H](O)[C@@H](O)C[C@]4(C)[C@H]3CC[C@]12C
[1]; Well no.=3603, low concentration screen
  remaining activity at 1.25 µM: 101%
[2]; Well no.=3603, high concentration screen
  remaining activity at 3.75 µM: 106%

## N#C/C(=C(/N)Sc1ccc(N)cc1)c1ccccc1C(F)(F)F
[1]; Well no.=2480, low concentration screen
  remaining activity at 1.25 µM: 98.7%
[2]; Well no.=2480, high concentration screen
  remaining activity at 3.75 µM: 98.3%

## C=C[C@]12CN(C)[C@@H]3[C@H]4CO[C@H](C[C@H]41)[C@]1(C(=O)Nc4ccccc41)[C@@H]32
[1]; Well no.=3460, low concentration screen
  remaining activity at 1.25 µM: 98%
[2]; Well no.=3460, high concentration screen
  remaining activity at 3.75 µM: 99%

## OC[C@@H]1[C@@H](O)[C@H](O)[C@H]2[C@@H](O)CCN21
[1]; Well no.=3085, low concentration screen
  remaining activity at 1.25 µM: 104%
[2]; Well no.=3085, high concentration screen
  remaining activity at 3.75 µM: 105%

## CC(CN1c2ccccc2Sc2ccccc21)N(C)C (stereo not shown)
[1]; Well no.=3844, low concentration screen
  remaining activity at 1.25 µM: 101%
[2]; Well no.=3844, high concentration screen
  remaining activity at 3.75 µM: 97.9%

## COc1cc2c3cc1Oc1c(OC)c(OC)cc4c1[C@@H](Cc1ccc(O)c(c1)Oc1ccc(cc1)C[C@@H]3N(C)CC2)N(C)CC4
[1]; Well no.=3633, low concentration screen
  remaining activity at 1.25 µM: 103%
[2]; Well no.=3633, high concentration screen
  remaining activity at 3.75 µM: 103%

## N[C@]1(C(=O)O)CC[C@H](C(=O)O)C1
[1]; Well no.=64, low concentration screen
  remaining activity at 1.25 µM: 102%
[2]; Well no.=64, high concentration screen
  remaining activity at 3.75 µM: 101%

## O=C1C[C@@H]2OCC=C3CN4CC[C@]56c7ccccc7N1[C@H]5[C@H]2[C@H]3C[C@H]46
[1]
  remaining activity at 1.25 µM: 94.4%
[2]
  remaining activity at 3.75 µM: 94.7%

## CC[C@H]1CN2CCc3cc(OC)c(OC)cc3[C@@H]2C[C@@H]1C[C@H]1NCCc2cc(O)c(OC)cc21
[1]; Well no.=3501, low concentration screen
  remaining activity at 1.25 µM: 96.1%
[2]; Well no.=3501, high concentration screen
  remaining activity at 3.75 µM: 88.7%

## CN1[C@@H](CC(=O)c2ccccc2)CCC[C@H]1C[C@H](O)c1ccccc1
[1]; Well no.=3438, low concentration screen
  remaining activity at 1.25 µM: 97.9%
[2]; Well no.=3438, high concentration screen
  remaining activity at 3.75 µM: 97.7%

## CN(C/C=C/C#CC(C)(C)C)Cc1cccc2ccccc12
[1]; Well no.=3894, low concentration screen
  remaining activity at 1.25 µM: 102%
[2]; Well no.=3894, high concentration screen
  remaining activity at 3.75 µM: 103%

## CC1(C)CCC2=C(O1)c1ccccc1C(=O)C2=O
[1]; Well no.=3375, low concentration screen
  remaining activity at 1.25 µM: 95.6%
[1]; Well no.=3845, low concentration screen
  remaining activity at 1.25 µM: 96.1%
[2]; Well no.=3375, high concentration screen
  remaining activity at 3.75 µM: 84.1%
[2]; Well no.=3845, high concentration screen
  remaining activity at 3.75 µM: 91.8%

## CC[C@H](CC[C@@H](C)[C@H]1CC[C@H]2[C@@H]3CC=C4C[C@@H](O)CC[C@]4(C)[C@H]3CC[C@]12C)C(C)C
[1]; Well no.=3416, low concentration screen
  remaining activity at 1.25 µM: 93.1%
[2]; Well no.=3416, high concentration screen
  remaining activity at 3.75 µM: 96.8%

## O=C(O)[C@H]1NCCC[C@H]1C(=O)O
[1]; Well no.=1161, low concentration screen
  remaining activity at 1.25 µM: 106%
[2]; Well no.=1161, high concentration screen
  remaining activity at 3.75 µM: 106%

## C[C@H]1CCC[C@H](O)CCCCCc2cc(O)cc(O)c2C(=O)O1
[1]; Well no.=3340, low concentration screen
  remaining activity at 1.25 µM: 91.6%
[2]; Well no.=3340, high concentration screen
  remaining activity at 3.75 µM: 94%

## COc1ccc2c3c1O[C@H]1C[C@@H](O)C=C[C@@]31CCN(C)C2
[1]; Well no.=3677, low concentration screen
  remaining activity at 1.25 µM: 98.7%
[2]; Well no.=3677, high concentration screen
  remaining activity at 3.75 µM: 103%

## C[n+]1cccc(C(=O)O)c1
[1]; Well no.=3390, low concentration screen
  remaining activity at 1.25 µM: 94.5%
[2]; Well no.=3390, high concentration screen
  remaining activity at 3.75 µM: 99.5%

## COC(=O)[C@@H]1[C@H]2C[C@H]3c4[nH]c5ccccc5c4CCN3C[C@@H]2CC[C@@H]1O
[1]; Well no.=3378, low concentration screen
  remaining activity at 1.25 µM: 86.8%
[2]; Well no.=1699, high concentration screen
  remaining activity at 3.75 µM: 103%
[2]; Well no.=3378, high concentration screen
  remaining activity at 3.75 µM: 87.3%

## O=C(O)CN(CCN(CC(=O)O)Cc1ccccc1O)Cc1ccccc1O
[1]; Well no.=3846, low concentration screen
  remaining activity at 1.25 µM: 106%
[2]; Well no.=3846, high concentration screen
  remaining activity at 3.75 µM: 103%

## Cc1cc(C(C)Nc2ccccc2)c2nc(N3CCOCC3)cc(=O)n2c1 (stereo not shown)
[1]; Well no.=2577, low concentration screen
  remaining activity at 1.25 µM: 101%
[2]; Well no.=2577, high concentration screen
  remaining activity at 3.75 µM: 101%

## C[N+]1(C)CCC[C@H]1C(=O)O
[1]; Well no.=3118, low concentration screen
  remaining activity at 1.25 µM: 107%
[2]; Well no.=3118, high concentration screen
  remaining activity at 3.75 µM: 105%

## O=c1ccn([C@@H]2O[C@@]3(CO)CO[C@@H]2[C@@H]3O)c(=O)[nH]1
[1]; Well no.=7864, low concentration screen
  remaining activity at 1.25 µM: 98.5%
[2]; Well no.=7864, high concentration screen
  remaining activity at 3.75 µM: 92.8%

## CCCN1CC[C@@H]2c3cc(O)ccc3CC[C@@H]21
[1]; Well no.=1044, low concentration screen
  remaining activity at 1.25 µM: 98.9%
[2]; Well no.=1044, high concentration screen
  remaining activity at 3.75 µM: 100%

## CC(C)=CC[C@@H](OC(=O)C=C(C)C)C1=CC(=O)c2c(O)ccc(O)c2C1=O
[1]; Well no.=3305, low concentration screen
  remaining activity at 1.25 µM: 89.6%
[2]; Well no.=3305, high concentration screen
  remaining activity at 3.75 µM: 85.3%

## CCN(CC)CCCC(C)Nc1nc(C)cc(Nc2ccc3nc(C)cc(N)c3c2)n1 (stereo not shown) [NSC 23766 (trihydrochloride)]
[1]; Well no.=7865, low concentration screen
  remaining activity at 1.25 µM: 98.1%

## Nc1[nH]nc2nc3ccccc3nc12 [NSC 693868 - 1H-Pyrazolo[3,4-b]quinoxalin-3-amine]
[1]; Well no.=2476, low concentration screen
  remaining activity at 1.25 µM: 95.5%

## CN(C)C(=O)Oc1cccc([N+](C)(C)C)c1 [Neostigmine bromide]
[1]; Well no.=853, low concentration screen
  remaining activity at 1.25 µM: 105%

## O=C1CCCN1CC#CCN1CCCC1 [Oxotremorine sesquifumarate salt]
[1]; Well no.=946, low concentration screen
  remaining activity at 1.25 µM: 103%

## COc1cc2nc(N3CCN(C(=O)c4ccco4)CC3)nc(N)c2cc1OC [Prazosin hydrochloride]
[1]; Well no.=1349, low concentration screen
  remaining activity at 1.25 µM: 98.8%

## CN(C)CCCN1c2ccccc2Sc2ccccc21 [Promazine (hydrochloride)]
[1]; Well no.=6711, low concentration screen
  remaining activity at 1.25 µM: 103%

## CC(CN1c2ccccc2Sc2ccccc21)N(C)C (stereo not shown) [Promethazine (hydrochloride)]
[1]; Well no.=6811, low concentration screen
  remaining activity at 1.25 µM: 99.3%

## CCCCC[C@H](O)/C=C/[C@@H]1[C@@H](C/C=C\CCCC(=O)O)[C@@H](O)C[C@H]1O [Prostaglandin F2a]
[1]; Well no.=3094, low concentration screen
  remaining activity at 1.25 µM: 107%

## Cc1cc2c(cc1Cl)N(C(=O)Nc1ccc(Oc3cccnc3C)nc1)CC2 [SB 242084]
[1]; Well no.=7137, low concentration screen
  remaining activity at 1.25 µM: 103%

## CC1(C)[C@H](C(=O)O)N2C(=O)C[C@H]2S1(=O)=O [Sulbactam]
[1]; Well no.=2023, low concentration screen
  remaining activity at 1.25 µM: 106%
[1]; Well no.=7450, low concentration screen
  remaining activity at 1.25 µM: 101%

## CC(=O)O[C@H]1C(=O)[C@@]2(C)[C@H]([C@H](OC(=O)c3ccccc3)[C@]3(O)C[C@H](OC(=O)[C@H](O)[C@@H](NC(=O)c4ccccc4)c4ccccc4)C(C)=C1C3(C)C)[C@]1(OC(C)=O)CO[C@@H]1C[C@@H]2O [Taxol]
[1]; Well no.=1180, low concentration screen
  remaining activity at 1.25 µM: 92.6%
[1]; Well no.=1999, low concentration screen
  remaining activity at 1.25 µM: 103%
[1]; Well no.=3180, low concentration screen
  remaining activity at 1.25 µM: 106%

## Cn1c(=O)c2nc[nH]c2n(C)c1=O [Theophylline]
[1]; Well no.=1235, low concentration screen
  remaining activity at 1.25 µM: 97.1%
[1]; Well no.=6249, low concentration screen
  remaining activity at 1.25 µM: 110%
[1]; Well no.=8277, low concentration screen
  remaining activity at 1.25 µM: 98.3%
